This is an account of results in US11376302B2, “Methods for treating depression and major depressive disorder” (priority 2017, dated 2022).

The subject of data set [1] is global protein synthesis in the hippocampus. As to the kind of experiment: SUnSET measurement of global protein synthesis in brain tissue after injection. The data set is classed as in vivo, mouse.
Method: Protein synthesis was measured by the SUnSET method. After pharmacological manipulation, mice were sacrificed by cervical dislocation, brains were removed, and the hippocampi were rapidly dissected, immersed in liquid nitrogen, and stored at −80° C. until further use. Hippocampi were homogenized using 20 strokes of a pre-chilled glass homogenizer with 600 μl of lysis buffer containing 50 mM Tris, pH 7.8, 240 mM KCl, 10 mM MgCl2, 250 mM D-sucrose, 2% Triton X-100, 20 μg/ml emetine, 5 mM DTT, 100 U/ml Rnasin (Promega), and protease inhibitor mixture without EDTA (Roche). Samples were centrifuged for 5 min at 16,100 g at 4° C. and supernatant was incubated with 100 g/ml puromycin for 10 min at 4° C. An equal volume of 2×SDS sample buffer (10% glycerol, 5% β-mercaptoethanol, 4% SDS, 120 mM Tris-HCl, pH 6.8) was added to the samples and then boiled for 10 min at 100° C. Protein concentrations were determined using the BCA protein assay (Thermo), and samples were stored at −20° C. until further use. Puromycin incorporation was detected by western blotting using 12D10 antibody for puromycin (1:1000, Millipore).
The conditions of data set [2]: cited from earlier work.
In data set [3] the test system is mice. As to the kind of experiment: Tail suspension test (TST). It is filed as in vivo, mouse. The note with it: C57BL/6 mice, Tatcont then ketamine, test 24 hours later. Here is the method:
Custom made clear hollow cylinders (4 cm length, 1.2 cm inner diameter, 1 g) from polycarbonate tubing were placed around the tails of mice to prevent tail climbing behavior. Tape was adhered to the tails of mice on one end, and the other end of the tape was adhered to a custom designed chamber with a white background. Mice were video recorded for 6 minute and the entire 6 minute session was scored for immobility. Total immobility time (seconds) is shown in the results.

Data set [4] relates to mice. As to the kind of experiment: Forced swim test (FST). It is filed as in vivo, mouse. How it is done:
After receiving treatments mice were subjected to FST. Briefly, mice were introduced into a transparent glass beaker (26 cm×18 cm) containing 4 liters deep water at 24° C. and were video-recorded for 6 minutes. The last 4 min were scored for immobility. Total immobility time (in seconds) is shown in the results.

The subject of data set [5] is mice. As to the kind of experiment: Novelty suppressed feeding (NSF) test. It is filed as in vivo, mouse. The note with it: C57BL/6 mice, ketamine injection. Here is the method:
Novelty Suppressed Feeding (NSF)
After receiving the treatments mice were subjected to NSF. Briefly, mice were food deprived for 14 h and then placed in a temporary home cage for 30 min. During the test, mice were placed in a square arena 50×50 cm with bright room light. A food pellet was placed in the center of an open field. Each trial was 10 min in duration. Animal behavior was recorded, and latency to feeding (s) was measured.

Entries after “also recorded” stand apart in the source; their conditions may differ.

As to `COc1ccc(C[C@H]2NC[C@H](O)[C@H]2OC(C)=O)cc1` [anisomycin], the protein synthesis entry in data set [1] (anisomycin 120 mg/kg b.w.) is “blocked protein synthesis”. In addition, the ketamine-induced protein synthesis entry in data set [1] (anisomycin 120 mg/kg b.w. with ketamine) was “blocked”.
Consider `CNC1(c2ccccc2Cl)CCCCC1=O` (stereo not drawn) [ketamine], for which the “persistence of antidepressant effect” value in data set [2] (human patients, single intravenous administration) is given as “persists for many hours to days”. The “reduction of depression in human patients” value in data set [2] (single intravenous administration) is recorded as “sufficient to reduce depression”. Besides, in data set [2] (single or repeated infusions, lasting a few minutes to hours), the “side effects of infusions in humans” value was “acute dissociative and psychotomimetic effects”. The “immobility time in the TST” value in the data set with mice [3] is listed as “shorter immobility time”. Further, the “immobility time in the FST” value is reported as “shorter immobility time” in the data set with mice [4] (C57BL/6 mice, Tatcont then ketamine, test 24 hours later); “reduced the immobility time” in the data set with mice [4] (WT littermates, 30 minutes after ketamine); “no difference in immobility” in the data set with mice [4] (eEF2K-KO mice, 30 minutes after ketamine). Also, in the data set with mice [4] (C57BL/6 mice, ketamine IP (5 mg per kg b.w. in Example 1), short-term test), the “immobility time in the forced swim test” value was “reduced the immobility time; also recorded: shorter immobility time”. Further, the “immobility time in FST” value in the data set on mice [4] (WT mice, 24 hours after ketamine injection) is “reduced immobility time”; in the data set with mice [4] (eEF2K-KO mice, 24 hours after injection), “no difference”; with mice [4] (ketamine 5 mg/kg b.w., FST 24 hours later, C57BL/6 mice), “shorter immobility time”; in the data set with mice [4] (ketamine 10 mg/kg b.w., FST 24 hours later, C57BL/6 mice), “shorter immobility time”. In addition, the “latency to feeding in the novelty suppressed feeding test” value in the data set with mice [5] is recorded as “reduced the latency to feeding”.
